Data taken from PubChem BioAssay AID1259411 (Chemical Carcinogenesis Research Information System (CCRIS), 2018).
Activity calls are given as the source filed them. How the calls were made is not given here.

System: rodent carcinogenicity bioassays, tumor incidence
Assay: CCRIS carcinogenicity studies
Outline: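 Archive of carcinogenicity, mutagenicity, tumor promotion and tumor inhibition results drawn from journals, NCI reports and other sources, expert-reviewed; covers 1985-2011 and is no longer updated.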

Cc1ccc2cc3c(ccc4ccccc43)c3c2c1CC3O (stereo unspecified)
carcinogen call (Species: RAT, Strain/Sex: SPRAGUE-DAWLEY/FEMALE, Route: SUBCUTANEOUS, Dose: 0, 0.2 UMOL IN 0.1 ML SESAME OIL:DMSO (9:1) 3/WK FOR 20 DOSES (STUDY DURATION: 52 WK), Tumor Site: Type of Lesion: INJECTION SITE: SARCOMA): active; positive

COc1ccccc1N
carcinogen call (Species: MOUSE, Strain/Sex: B6C3F1/FEMALE, Route: ORAL, Dose: 0, 2500, 5000 PPM IN DIET FOR 103 WK (STUDY DURATION: 105 WK), Dose: 0, 2500, 5000 PPM IN DIET FOR 103 WK (STUDY DURATION: 105 WK), Tumor Site: Type of Lesion: URINARY BLADDER: TRANSITIONAL CELL CARCINOMA, TRANSITIONAL CELL PAPILLOMA OR CARCINOMA): active; positive | carcinogen call (Species: MOUSE, Strain/Sex: B6C3F1/MALE, Route: ORAL, Dose: 0, 2500, 5000 PPM IN DIET FOR 103 WK (STUDY DURATION: 104-105 WK), Dose: 0, 2500, 5000 PPM IN DIET FOR 103 WK (STUDY DURATION: 104-105 WK), Tumor Site: Type of Lesion: URINARY BLADDER: TRANSITIONAL CELL CARCINOMA, TRANSITIONAL CELL PAPILLOMA OR CARCINOMA): active; positive | carcinogen call (Species: RAT, Strain/Sex: F344/FEMALE, Route: ORAL, Dose: 0, 5000, 10000 PPM IN DIET FOR 83-103 WK (STUDY DURATION: 83-107 WK), Dose: 0, 5000, 10000 PPM IN DIET FOR 83-103 WK (STUDY DURATION: 83-107 WK), Tumor Site: Type of Lesion: URINARY BLADDER: TRANSITIONAL CELL CARCINOMA, TRANSITIONAL CELL PAPILLOMA OR CARCINOMA): active; positive | carcinogen call (Species: RAT, Strain/Sex: F344/MALE, Route: ORAL, Dose: 0, 5000, 10000 PPM IN DIET FOR 88-103 WK (STUDY DURATION: 88-106 WK), Dose: 0, 5000, 10000 PPM IN DIET FOR 88-103 WK (STUDY DURATION: 88-106 WK), Tumor Site: Type of Lesion: KIDNEY OR KIDNEY (PELVIS): TRANSITIONAL CELL CARCINOMA, URINARY BLADDER: TRANSITIONAL CELL CARCINOMA, TRANSITIONAL CELL): active; positive

c1ccc(Nc2ccc3ccccc3c2)cc1
carcinogen call (Species: MOUSE, Strain/Sex: B6C3F1/FEMALE, Route: ORAL, Dose: 0, 2500, 5000 PPM IN DIET FOR 103 WK (STUDY DURATION: 104 WK), Dose: 0, 2500, 5000 PPM IN DIET FOR 103 WK (STUDY DURATION: 104 WK), Tumor Site: Type of Lesion: KIDNEY: RENAL TUBULAR CELL ADENOMA, RENAL TUBULAR CELL ADENOCARCINOMA): equivocal | carcinogen call (Species: MOUSE, Strain/Sex: B6C3F1/MALE, Route: ORAL, Dose: 0, 2500, 5000 PPM IN DIET FOR 103 WK (STUDY DURATION: 104 WK), Dose: 0, 2500, 5000 PPM IN DIET FOR 103 WK (STUDY DURATION: 104 WK)): inactive; negative | carcinogen call (Species: RAT, Strain/Sex: F344/FEMALE, Route: ORAL, Dose: 0, 2500, 5000 PPM IN DIET FOR 103 WK (STUDY DURATION: 104 WK), Dose: 0, 2500, 5000 PPM IN DIET FOR 103 WK (STUDY DURATION: 104 WK)): inactive; negative | carcinogen call (Species: RAT, Strain/Sex: F344/MALE, Route: ORAL, Dose: 0, 2500, 5000 PPM IN DIET FOR 103 WK (STUDY DURATION: 104 WK), Dose: 0, 2500, 5000 PPM IN DIET FOR 103 WK (STUDY DURATION: 104 WK)): inactive; negative | carcinogen call (Species: RAT, Strain/Sex: SPRAGUE-DAWLEY/FEMALE, Route: GAVAGE, Dose: 0, 600 MG/KG BW 2/WK FOR DURATION OF STUDY (STUDY DURATION: LIFETIME)): inactive; negative | carcinogen call (Species: RAT, Strain/Sex: SPRAGUE-DAWLEY/MALE, Route: GAVAGE, Dose: 0, 600 MG/KG BW 2/WK FOR DURATION OF STUDY (STUDY DURATION: LIFETIME)): inactive; negative

OC1C=Cc2c(cc3ccc4cccc5c6ccccc6c2c3c45)C1O (stereo unspecified)
carcinogen call (Species: MOUSE, Strain/Sex: SWISS/FEMALE, Route: DERMAL, Dose: 0, 1, 4 NMOL IN 100 µL ACETONE 2/WK FOR 40 WK (STUDY DURATION: 48 WK), Dose: 0, 1, 4 NMOL IN 100 µL ACETONE 2/WK FOR 40 WK (STUDY DURATION: 48 WK), Tumor Site: Type of Lesion: SKIN: TUMORS): active; positive

CC(=O)OC/N=[N+](/C)[O-]
carcinogen call (Species: FISH, Strain/Sex: MOSQUITOFISH/MALE, FEMALE, Route: IMMERSION, Dose: 0, 10 MG/L IN WATER FOR 2 HR EXPOSURE (STUDY DURATION: 40 WK), Tumor Site: Type of Lesion: LIVER: TUMOR): active; positive | carcinogen call (Species: MONKEY, Strain/Sex: AFRICAN GREEN/MALE,FEMALE, Route: INTRAPERITONEAL, Dose: 1.94-9.66 G TOTAL DOSE, 1/WK FOR UP TO 89 MO, Tumor Site: Type of Lesion: LIVER: HEPATOCELLULAR CARCINOMA, HEMANGIOSARCOMA, KIDNEY: RENAL CELL CARCINOMA, ESOPHAGUS: SQUAMOUS CELL CARCINOMA, CECU, Tumor Site: Type of Lesion: LIVER: HEPATOCELLULAR CARCINOMA, HEMANGIOSARCOMA, KIDNEY: RENAL CELL CARCINOMA, ESOPHAGUS: SQUAMOUS CELL CARCINOMA, CECU): active; positive | carcinogen call (Species: MONKEY, Strain/Sex: CYNOMOLGUS/MALE,FEMALE, Route: INTRAPERITONEAL, Dose: 1.94-9.66 G TOTAL DOSE, 1/WK FOR UP TO 89 MO, Tumor Site: Type of Lesion: LIVER: HEPATOCELLULAR CARCINOMA, HEMANGIOSARCOMA, KIDNEY: RENAL CELL CARCINOMA, ESOPHAGUS: SQUAMOUS CELL CARCINOMA, CECU, Tumor Site: Type of Lesion: LIVER: HEPATOCELLULAR CARCINOMA, HEMANGIOSARCOMA, KIDNEY: RENAL CELL CARCINOMA, ESOPHAGUS: SQUAMOUS CELL CARCINOMA, CECU): active; positive | carcinogen call (Species: MONKEY, Strain/Sex: RHESUS/MALE,FEMALE, Route: INTRAPERITONEAL, Dose: 1.94-9.66 G TOTAL DOSE, 1/WK FOR UP TO 89 MO, Tumor Site: Type of Lesion: LIVER: HEPATOCELLULAR CARCINOMA, HEMANGIOSARCOMA, KIDNEY: RENAL CELL CARCINOMA, ESOPHAGUS: SQUAMOUS CELL CARCINOMA, CECU, Tumor Site: Type of Lesion: LIVER: HEPATOCELLULAR CARCINOMA, HEMANGIOSARCOMA, KIDNEY: RENAL CELL CARCINOMA, ESOPHAGUS: SQUAMOUS CELL CARCINOMA, CECU): active; positive | carcinogen call (Species: MOUSE, Route: SUBCUTANEOUS, Dose: 0.2-0.4 MG, SINGLE DOSE, Tumor Site: Type of Lesion: UNSPECIFIED: TUMOR): active; positive | carcinogen call (Species: MOUSE, Strain/Sex: BALB/FEMALE, Route: DERMAL, Dose: 0, 0.5 MG PAINTED ON ANAL REGION 3/WK FOR 24 WK (STUDY DURATION: 24 WK), Tumor Site: Type of Lesion: PERIANAL SEBACEOUS GLAND: SQUAMOUS CELL CARCINOMA, ADENOMA): active; positive | carcinogen call (Species: MOUSE, Strain/Sex: BALB/MALE, Route: DERMAL, Dose: 0, 0.5 MG PAINTED ON ANAL REGION 3/WK FOR 24 WK (STUDY DURATION: 30 WK), Tumor Site: Type of Lesion: PERIANAL SEBACEOUS GLAND: SQUAMOUS CELL CARCINOMA, BLOOD VESSELS: HEMANGIOMA OR HEMANGIOENDOTHELIOMA): active; positive | carcinogen call (Species: RAT, Route: INTRAPERITONEAL, SUBCUTANEOUS, Tumor Site: Type of Lesion: BILE DUCT, INTESTINES, KIDNEY, Tumor Site: Type of Lesion: BILE DUCT, INTESTINES, KIDNEY): active; positive | carcinogen call (Species: RAT, Route: INTRAVENOUS, ORAL, Tumor Site: Type of Lesion: INTESTINES, KIDNEY, LIVER, Tumor Site: Type of Lesion: INTESTINES, KIDNEY, LIVER): active; positive | carcinogen call (Species: RAT, Route: RECTAL, Tumor Site: Type of Lesion: INTESTINES, KIDNEY): active; positive | carcinogen call (Species: RAT, Route: SUBCUTANEOUS, Dose: 12.5 MG TOTAL DOSE, 4 DOSES OVER 3 WK, Tumor Site: Type of Lesion: INTESTINES: NEOPLASMS, BILE DUCT: ADENOMA): active; positive | carcinogen call (Species: RAT, Strain/Sex: DONRYU/MALE, Route: RECTAL, Dose: 1 MG, 1/D FOR 7-26 D, Tumor Site: Type of Lesion: INTESTINES (LARGE): ADENOCARCINOMA, KIDNEY: NEPHROBLASTOMA): active; positive

Oc1c(Cl)cc(Cl)c(Cl)c1Cc1c(O)c(Cl)cc(Cl)c1Cl
carcinogen call (Species: RAT, Strain/Sex: F344/FEMALE, Route: ORAL, Dose: 0, 17, 50, 150 PPM IN DIET, Dose: 0, 17, 50, 150 PPM IN DIET): inactive; negative | carcinogen call (Species: RAT, Strain/Sex: F344/MALE, Route: ORAL, Dose: 0, 17, 50, 150 PPM IN DIET, Dose: 0, 17, 50, 150 PPM IN DIET): inactive; negative
